Measurements taken from patent US9796768B2, “Peptide inhibitors of sodium channels” (The University of North Carolina at Chapel Hill, priority 2014, dated 2017).
“Also recorded” adds a separate entry of the source. Like-named read-outs stand apart in the source and are kept apart here. Non-standard residues stand in square brackets, D forms with d. Residues, ends and D or L forms follow the SMILES beside them. No end group written: not given here. Nle = CCCC[C@H](N)C(=O)O

Legend:
ENaC [1] = target: T1, ENaC (Homo sapiens, UniProt P51168); assay: Airway surface liquid (ASL) height in human bronchial epithelial cultures by XZ-confocal microscopy (ENaC-led fluid absorption); format: cell-based; conditions: for potency in ASL height dose response relative to S18: dose responses in airway cultures (FIGS. 3A-3B, 4); for efficacy in ASL height dose response relative to S18: dose responses in airway cultures (FIGS. 3A-3B); for activity on inhibition of ENaC / preservation of ASL height, compared with S18: peptides added mucosally to HBECs at 30 μM, ASL height measured 3 h later (FIG. 2)
T1 construct: endogenous in cells; host or cells: primary human bronchial epithelial cultures (HBECs) at air-liquid interface
T1 sequence (P37088 whole entry partner): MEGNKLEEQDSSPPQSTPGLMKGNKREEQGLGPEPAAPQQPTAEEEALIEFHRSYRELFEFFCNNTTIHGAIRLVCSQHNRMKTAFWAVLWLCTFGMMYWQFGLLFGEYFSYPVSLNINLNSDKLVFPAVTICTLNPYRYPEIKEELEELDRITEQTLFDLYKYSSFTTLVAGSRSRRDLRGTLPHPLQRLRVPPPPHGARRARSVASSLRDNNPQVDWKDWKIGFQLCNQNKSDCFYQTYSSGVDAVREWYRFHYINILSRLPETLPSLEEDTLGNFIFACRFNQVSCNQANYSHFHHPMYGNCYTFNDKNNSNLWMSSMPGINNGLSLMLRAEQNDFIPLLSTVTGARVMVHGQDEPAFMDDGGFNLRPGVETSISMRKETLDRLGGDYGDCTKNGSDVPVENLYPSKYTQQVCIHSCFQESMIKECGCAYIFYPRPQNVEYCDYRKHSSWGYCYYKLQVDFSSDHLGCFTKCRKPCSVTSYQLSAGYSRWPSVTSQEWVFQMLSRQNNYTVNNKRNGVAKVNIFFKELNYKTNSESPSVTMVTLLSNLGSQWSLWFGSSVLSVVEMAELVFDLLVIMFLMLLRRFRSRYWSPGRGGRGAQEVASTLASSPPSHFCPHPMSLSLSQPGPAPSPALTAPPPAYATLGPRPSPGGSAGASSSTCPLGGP
T1 sequence (P51168 whole entry): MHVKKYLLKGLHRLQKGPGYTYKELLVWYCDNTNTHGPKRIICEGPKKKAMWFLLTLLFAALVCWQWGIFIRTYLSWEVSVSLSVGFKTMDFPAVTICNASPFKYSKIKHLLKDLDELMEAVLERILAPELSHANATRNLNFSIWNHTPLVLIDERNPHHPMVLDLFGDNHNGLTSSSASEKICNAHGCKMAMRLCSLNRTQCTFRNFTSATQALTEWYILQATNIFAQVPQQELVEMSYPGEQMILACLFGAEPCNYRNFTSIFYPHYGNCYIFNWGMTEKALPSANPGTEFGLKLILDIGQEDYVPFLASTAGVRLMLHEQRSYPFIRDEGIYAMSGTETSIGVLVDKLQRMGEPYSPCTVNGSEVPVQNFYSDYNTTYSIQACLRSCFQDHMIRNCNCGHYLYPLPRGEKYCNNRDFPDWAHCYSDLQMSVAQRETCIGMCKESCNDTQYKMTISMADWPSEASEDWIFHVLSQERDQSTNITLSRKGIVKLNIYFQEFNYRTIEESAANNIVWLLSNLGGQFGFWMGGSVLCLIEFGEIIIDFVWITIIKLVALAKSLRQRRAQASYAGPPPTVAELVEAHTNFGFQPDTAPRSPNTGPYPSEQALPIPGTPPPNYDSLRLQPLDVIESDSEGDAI
T1 sequence (P51170 whole entry partner): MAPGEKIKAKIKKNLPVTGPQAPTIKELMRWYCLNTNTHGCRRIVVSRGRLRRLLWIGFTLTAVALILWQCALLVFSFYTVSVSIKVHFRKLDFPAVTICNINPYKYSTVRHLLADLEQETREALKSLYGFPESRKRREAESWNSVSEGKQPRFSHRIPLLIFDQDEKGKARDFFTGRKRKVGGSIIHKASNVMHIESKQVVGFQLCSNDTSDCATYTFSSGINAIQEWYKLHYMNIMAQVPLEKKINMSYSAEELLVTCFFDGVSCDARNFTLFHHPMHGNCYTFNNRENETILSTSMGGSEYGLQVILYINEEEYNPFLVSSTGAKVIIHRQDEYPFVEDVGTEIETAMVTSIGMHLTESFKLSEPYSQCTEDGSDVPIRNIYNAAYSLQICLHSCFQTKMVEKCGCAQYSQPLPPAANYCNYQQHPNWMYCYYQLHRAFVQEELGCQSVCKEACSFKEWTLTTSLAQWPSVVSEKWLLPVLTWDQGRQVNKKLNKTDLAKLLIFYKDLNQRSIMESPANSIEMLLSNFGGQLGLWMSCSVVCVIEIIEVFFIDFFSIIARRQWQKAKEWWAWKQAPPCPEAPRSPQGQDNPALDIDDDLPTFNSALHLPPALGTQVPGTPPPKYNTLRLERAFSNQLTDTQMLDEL
Text: Cells were harvested by enzymatic digestion from human bronchial tissue as previously described under a protocol approved by the UNC School of Medicine IRB (Tarran et al., J. Gen. Physiol. 127:591 (2006)). Human excess donor lungs and excised recipient lungs were obtained at the time of lung transplantation from portions of main stem or […] bronchi and cells were harvested by enzymatic digestion. All preparations were maintained at an air-liquid interface in a modified bronchial epithelial medium and used 2-5 weeks after seeding on 12 mm T-Clear inserts (Corning Costar) coated with human placental type VI collagen (Sigma). Phosphate buffered saline (PBS) was used for washing human bronchial epithelial culture mucosal surfaces.
To label airway surface liquid, Ringer containing Texas Red-dextran (2 mg/ml; Invitrogen) was added to human bronchial epithelial culture mucosal surfaces. Perfluorocarbon was added mucosally to prevent evaporation of the airway surface liquid and the culture placed in a chamber containing 100 μl Ringer on the stage of a Leica SP8 confocal microscope with a 63× glycerol immersion objective. 10 points per culture were scanned and an average airway surface liquid height determined. For confocal microscopy human bronchial epithelial cultures were bathed serosally in a modified Ringer solution containing (mM): 116 NaCl, 10 NaHCO3, 5.1 KCl, 1.2 CaCl2, 1.2 MgCl2, 20 TES, 10 glucose, pH 7.4). At all other times, human bronchial epithelial cultures were maintained in a modified BEGM growth medium which contained 24 mM NaHCO3 gassed with 5% CO2. Perfluorocarbon (FC-77) was obtained from 3M and had no effect on ASL height as previously reported.
D-alanines are noted as lowercase a. All n=6-9. Data are shown as mean±SEM.

βENaC-Tg mice = format: in vivo
Text: Like CF patients, βENaC-Tg mice are disease free at birth, but soon develop obstructive lung disease (Zhou, Z., et al. Am J Respir Crit Care Med 178, 1245-1256 (2008)). C57BL:FVB and C57BL:C3H mixed strains have 90% and 50% mortality, respectively, and the reproducibility of the disease on these backgrounds is sufficiently high that reliable data are produced with n of about 8-10 animals/group. Furthermore, the βENaC-Tg mouse responds to therapeutic interventions in a fashion similar to CF/COPD in humans, and the development of lung disease can be prevented following inhibition of lung disease at birth (Livraghi, A., et al. J Immunol 182, 4357-4367 (2009)). S18-derived peptides or vehicle were dosed one to three times a day by intranasal instillation (1 μl/g body weight) for 14 days in parallel cohorts of mice. Mice were weighed daily and, if a diuretic effect was found, the volume excreted was replaced by sub-cutaneous injections of sterile saline. At the end of the treatment, mice were sacrificed for phenotypic analysis.

ENaC [2] = target: T1, ENaC; conditions: previously demonstrated (Hobbs et al., 2013); cited from earlier work
Heat stability = format: physicochemical
[3] = βENaC-Tg C57BL:C3H mice, fourteen-day treatment (FIGS. 7C, 7D, 7F)

## CCCC[C@H](NC(=O)[C@@H]1CCCN1C(=O)[C@H](CC(C)C)NC(=O)[C@@H](C)NC(=O)[C@@H](C)N)C(=O)N1CCC[C@H]1C(=O)N[C@@H](CC(C)C)C(=O)N[C@@H](CC(=O)O)C(=O)N[C@@H](CCC(N)=O)C(=O)N[C@H](C(=O)N[C@H](C)C(=O)N[C@H](C)C(N)=O)[C@@H](C)O [SEQ ID NO:5, aaLPNlePLDQTaa] (H-[dA][dA]LP[Nle]PLDQT[dA][dA]-NH2; N-terminus assumed)
ENaC [1]; additional dose response, fresh batch of airway cells (FIG. 4)
  IC50: 30 nM
ENaC [1]
  potency in ASL height dose response relative to S18: log-fold increase in potency; also recorded: significant increase in potency; also recorded: increased potency

## aaLPVPLDQSaa ([dA][dA]LPVPLDQS[dA][dA]-NH2; N-terminus assumed; SMILES CC(C)C[C@H](NC(=O)[C@@H]1CCCN1C(=O)[C@@H](NC(=O)[C@@H]1CCCN1C(=O)[C@H](CC(C)C)NC(=O)[C@@H](C)NC(=O)[C@@H](C)N)C(C)C)C(=O)N[C@@H](CC(=O)O)C(=O)N[C@@H](CCC(N)=O)C(=O)N[C@@H](CO)C(=O)N[C@H](C)C(=O)N[C@H](C)C(N)=O) [SEQ ID NO:9, a = D-alanine]
ENaC [1]
  potency in ASL height dose response relative to S18: diminished potency

## CC[C@H](C)[C@H](NC(=O)[C@@H]1CCCN1C(=O)[C@H](CC(C)C)NC(=O)[C@@H](C)NC(=O)[C@@H](C)N)C(=O)N1CCC[C@H]1C(=O)N[C@@H](CC(C)C)C(=O)N[C@@H](CC(=O)O)C(=O)N[C@@H](CCC(N)=O)C(=O)N[C@H](C(=O)N[C@H](C)C(=O)N[C@H](C)C(N)=O)[C@@H](C)O [SEQ ID NO:128, aaLPIPLDQTaa] (H-[dA][dA]LPIPLDQT[dA][dA]-NH2)
βENaC-Tg mice; [3]
  percent survival: increased percent survival
βENaC-Tg mice; βENaC-Tg C57BL:C3H mice, once daily dosing (FIG. 7E left panel)
  percent survival: increased percent survival
βENaC-Tg mice; βENaC-Tg C57BL:FVB mice, fourteen-day treatment, inhaled (FIG. 7B)
  percent survival: more effective than inhaled SEQ ID NO:142

## aaLPVPLDQTaa ([dA][dA]LPVPLDQT[dA][dA]-NH2; N-terminus assumed; SMILES CC(C)C[C@H](NC(=O)[C@@H]1CCCN1C(=O)[C@@H](NC(=O)[C@@H]1CCCN1C(=O)[C@H](CC(C)C)NC(=O)[C@@H](C)NC(=O)[C@@H](C)N)C(C)C)C(=O)N[C@@H](CC(=O)O)C(=O)N[C@@H](CCC(N)=O)C(=O)N[C@H](C(=O)N[C@H](C)C(=O)N[C@H](C)C(N)=O)[C@@H](C)O) [SEQ ID NO:3, a = D-alanine]
ENaC [1]
  efficacy in ASL height dose response relative to S18: did not affect its potency or efficacy; also recorded: equal potency and efficacy
  potency in ASL height dose response relative to S18: identical dose responses; also recorded: equal potency

## DQTLPLNVNP (also: C-terminal amide, amidation at residue 8) [SEQ ID NO:114]
ENaC [1]
  activity on inhibition of ENaC / preservation of ASL height, compared with S18: inactive

## aaLPVPNleDQTaa [SEQ ID NO:6]
ENaC [1]
  efficacy in ASL height dose response relative to S18: diminished

## H-LPVPLDQT-NH2 [SEQ ID NO:113, LPVPLDQT]
ENaC [1]
  activity on inhibition of ENaC / preservation of ASL height, compared with S18: retained similar activity to 518; also recorded: required for inhibition of ENaC and preservation of ASL height

## SEQ ID NO:127: NH3-L-P-I-P-L-D-Q-T-NH2 (H-LPIPLDQT-NH2)
βENaC-Tg mice; [3]
  percent survival: increased percent survival

## aaLPVPLDQTLPLNVNPaa ([dA][dA]LPVPLDQTLPLNVNP[dA][dA]-NH2; N-terminus assumed; SMILES CC(C)C[C@H](NC(=O)[C@@H]1CCCN1C(=O)[C@H](CC(C)C)NC(=O)[C@@H](NC(=O)[C@H](CCC(N)=O)NC(=O)[C@H](CC(=O)O)NC(=O)[C@H](CC(C)C)NC(=O)[C@@H]1CCCN1C(=O)[C@@H](NC(=O)[C@@H]1CCCN1C(=O)[C@H](CC(C)C)NC(=O)[C@@H](C)NC(=O)[C@@H](C)N)C(C)C)[C@@H](C)O)C(=O)N[C@@H](CC(N)=O)C(=O)N[C@H](C(=O)N[C@@H](CC(N)=O)C(=O)N1CCC[C@H]1C(=O)N[C@H](C)C(=O)N[C@H](C)C(N)=O)C(C)C) [SEQ ID NO:2, a = D-alanine]
ENaC [1]
  efficacy in ASL height dose response relative to S18: equal potency and efficacy
  potency in ASL height dose response relative to S18: equal potency

## H-GGLPVPLDQTLPLNVNPA-NH2 [S18]
ENaC [2]
  EC50 of ENaC inhibition: sub micromolar range
  duration of ENaC inhibition following a single dose: up to 24 h
Heat stability
  heat stability: heat-stable
